# Measured values published in ChEMBL document CHEMBL1151696 (Bioorg Med Chem, 2008).
# Calls of active or inactive are those of the source. The rule behind the calls is not given here.
# Assays:
# Human respirovirus 3 = format: functional, organism-based
# Human alphaherpesvirus 2 = format: functional, organism-based
# Coxsackievirus B4 = format: functional, organism-based
# [1] = test system: Respiratory syncytial virus; format: functional, organism-based
# Rattus norvegicus = organism: Rattus norvegicus; assay: Inhibition of [3H]dopamine uptake in Wistar rat striatum synaptosomes at 100 uM by scintillation spectrometry; format: functional, subcellular; parameters: scale not given: the % may be the effect or the level left
# Punta Toro virus = format: functional, organism-based
# Human alphaherpesvirus 1 = format: functional, organism-based
# Glutamate NMDA receptor [2] = assay: Antagonist activity at NMDA receptor in cerebellar granule neurons assessed as inhibition of NMDA-induced increase in intracellular calcium concentration by fluorometric assay; format: functional, cell-based
# Feline coronavirus = format: functional, organism-based
# Sindbis virus = format: functional, organism-based
# Glutamate NMDA receptor [3] = assay: Antagonist activity at NMDA receptor in cerebellar granule neurons assessed as inhibition of glutamate-induced increase in intracellular calcium concentration by fluorometric assay; format: functional, cell-based
# [4] = test system: Vesicular stomatitis virus; format: functional, organism-based
# [5] = test system: Mammalian orthoreovirus 1; format: functional, organism-based
SMILES,Activity (Human respirovirus 3),Activity (Human alphaherpesvirus 2),Activity (Coxsackievirus B4),Activity [1],Activity (Rattus norvegicus) [%],Activity (Punta Toro virus),Activity (Human alphaherpesvirus 1),IC50 (Glutamate NMDA receptor [2]) [µM],Activity (Feline coronavirus),Activity (Sindbis virus),IC50 (Glutamate NMDA receptor [3]) [µM],Activity [4],Activity [5]
CC12CC3CC1(C)CC3(N)C2,inactive,inactive,inactive,inactive,54.8,inactive,inactive,23,inactive,inactive,274,inactive,inactive
NC(N)=NCC12CC3CC(CC1C3)C2,,,,,,,,25,,,453,,
CC12CC3CC1(C)CC3(NCc1ccccc1)C2,inactive,inactive,inactive,inactive,,inactive,inactive,70,inactive,inactive,143,inactive,inactive
CC12CC3CC1(C)CC3(CN1CCCCC1)C2,inactive,inactive,inactive,inactive,39.8,inactive,inactive,> 200,inactive,inactive,> 200,inactive,inactive
COc1ccc(CNC23CC4CC(CC2C4)C3)cc1,inactive,inactive,inactive,inactive,63.9,inactive,inactive,> 200,inactive,inactive,> 200,inactive,inactive
N=C(N)NCC12CC3CC(CC1C3)C2,inactive,inactive,inactive,inactive,119,inactive,inactive,,inactive,inactive,,inactive,inactive
CNC12CC3CC(CC1C3)C2,inactive,inactive,inactive,inactive,65.2,inactive,inactive,65,inactive,inactive,205,inactive,inactive
CN(C)CC12CC3(C)CC1CC3(C)C2,inactive,inactive,inactive,inactive,,inactive,inactive,> 200,inactive,inactive,> 200,inactive,inactive
Fc1ccc(CNC23CC4CC(CC2C4)C3)cc1,inactive,inactive,inactive,inactive,81.1,inactive,inactive,> 200,inactive,inactive,> 200,inactive,inactive
c1csc(CNC23CC4CC(CC2C4)C3)c1,inactive,inactive,inactive,inactive,47.7,inactive,inactive,17,inactive,inactive,384,inactive,inactive
CNC12CC3(C)CC1CC3(C)C2,inactive,inactive,inactive,inactive,74.6,inactive,inactive,35,inactive,inactive,,inactive,inactive
CNCC12CC3CC(CC1C3)C2,inactive,inactive,inactive,inactive,76.3,inactive,inactive,71,inactive,inactive,> 500,inactive,inactive
CC12CC3CC1(C)CC3(NCc1cccs1)C2,inactive,inactive,inactive,inactive,,inactive,inactive,80,inactive,inactive,204,inactive,inactive
CNCC12CC3(C)CC1CC3(C)C2,inactive,inactive,inactive,inactive,57.3,inactive,inactive,> 200,inactive,inactive,> 200,inactive,inactive
C1CCN(C23CC4CC(CC2C4)C3)CC1,inactive,inactive,inactive,inactive,68.5,inactive,inactive,45,inactive,inactive,> 500,inactive,inactive
CC12CC3CC1(C)CC3(CNC(=N)N)C2,inactive,inactive,inactive,inactive,,inactive,inactive,7.1,inactive,inactive,104,inactive,inactive
CN(Cc1ccccc1)C12CC3(C)CC1CC3(C)C2,inactive,inactive,inactive,inactive,,inactive,inactive,> 200,inactive,inactive,> 200,inactive,inactive
CC12CC3CC(C)(C1)CC(N)(C3)C2,,,,,53.7,,,,,,,,
